This passage reports IC50 results from patent publication US12459932B2, “KIF18A inhibitors” (AMGEN INC., priority 2018, dated 2025).

As a reminder, the IC50 is the point on the concentration scale where inhibition reaches its midpoint.

T1 sequence (Q8NI77 1-467): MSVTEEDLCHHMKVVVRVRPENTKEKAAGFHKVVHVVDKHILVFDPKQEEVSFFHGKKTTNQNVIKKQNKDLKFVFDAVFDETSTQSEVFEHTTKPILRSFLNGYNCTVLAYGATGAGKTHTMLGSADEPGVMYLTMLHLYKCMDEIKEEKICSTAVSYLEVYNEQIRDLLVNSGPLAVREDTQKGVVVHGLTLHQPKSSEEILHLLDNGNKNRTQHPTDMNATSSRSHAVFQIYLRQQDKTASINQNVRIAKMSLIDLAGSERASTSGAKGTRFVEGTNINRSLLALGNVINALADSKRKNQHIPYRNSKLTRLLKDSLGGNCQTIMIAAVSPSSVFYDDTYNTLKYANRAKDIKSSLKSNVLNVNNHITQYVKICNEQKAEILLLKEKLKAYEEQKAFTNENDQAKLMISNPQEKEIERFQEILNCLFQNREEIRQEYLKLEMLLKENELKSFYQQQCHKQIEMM
T1 sequence (P02550 whole entry partner): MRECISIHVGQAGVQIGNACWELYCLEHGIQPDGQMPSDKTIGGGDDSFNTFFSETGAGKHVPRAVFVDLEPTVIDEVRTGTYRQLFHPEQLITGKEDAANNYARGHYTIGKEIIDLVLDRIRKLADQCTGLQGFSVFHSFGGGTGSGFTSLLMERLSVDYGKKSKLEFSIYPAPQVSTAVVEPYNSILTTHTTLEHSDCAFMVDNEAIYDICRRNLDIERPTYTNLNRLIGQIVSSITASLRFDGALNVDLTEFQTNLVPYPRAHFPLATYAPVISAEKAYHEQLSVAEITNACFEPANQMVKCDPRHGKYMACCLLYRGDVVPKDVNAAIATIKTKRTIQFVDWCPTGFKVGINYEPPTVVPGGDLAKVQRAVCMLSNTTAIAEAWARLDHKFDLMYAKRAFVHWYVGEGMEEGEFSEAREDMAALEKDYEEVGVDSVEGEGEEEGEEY
T1 sequence (P02554 whole entry partner): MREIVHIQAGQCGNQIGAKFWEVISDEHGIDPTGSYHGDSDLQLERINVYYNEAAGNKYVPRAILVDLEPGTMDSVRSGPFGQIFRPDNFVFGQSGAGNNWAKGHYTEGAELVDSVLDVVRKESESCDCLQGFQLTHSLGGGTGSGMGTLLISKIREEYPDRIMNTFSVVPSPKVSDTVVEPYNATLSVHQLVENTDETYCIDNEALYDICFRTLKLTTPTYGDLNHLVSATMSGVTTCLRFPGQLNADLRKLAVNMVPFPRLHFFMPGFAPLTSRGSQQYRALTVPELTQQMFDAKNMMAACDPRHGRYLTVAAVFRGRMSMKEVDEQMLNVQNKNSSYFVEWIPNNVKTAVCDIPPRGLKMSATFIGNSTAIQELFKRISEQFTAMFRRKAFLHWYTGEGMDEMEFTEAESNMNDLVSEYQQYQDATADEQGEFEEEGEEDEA

The test addresses T1, Recombinant human KIF18A (1-467 His-tagged) (Homo sapiens, UniProt Q8NI77).
T1 construct: Recombinant human KIF18A (1-467 His-tagged) protein; His
In words: KIF18A Enzyme Assay: microtubule-stimulated ATPase activity (ADP-Glo). The class given is biochemical. The following applies: 30 nM KIF18A, 30 μg/mL pig microtubules, ATP 75 μM (Km), ADP-Glo luminescence. As for the experimental part: KIF18A Enzyme Assay: Microtubule-stimulated ATPase activity assay is used to measure KIF18A enzyme activity after treatment with compound. Compounds were 2-fold serially diluted in DMSO (Sigma Inc) over 22-point concentration range. […] The assay measures ADP formed from the ATPase reaction. […] Read luminescence using EnVision microplate reader with ultra-luminescence module (Perkin Elmer Inc). Concentration-response curve-fitting and IC50 determination was performed using Genedata Screener Software (Standard 15.0.1, Genedata Inc) with a four-parameter logistic regression fit model.
Background: In ADP-Glo the light output rises with the ADP produced.
Take `CNS(=O)(=O)c1ccc(C(=O)Nc2cccc(N3CCO[C@H](C)C3)n2)c(N2CCC3(CC2)CC3)c1` [Example 1-3, (R)-N-(6-(2-Methylmorpholino)pyridin-2-yl)-4-(N-methylsulfamoyl)-2-(6-azaspiro[2.5]octan-6-yl)benzamide]: the 50% inhibitory concentration (IC50) was 44 nM.

With `C[C@@H]1CN(c2cccc(NC(=O)c3ccc(S(=O)(=O)NC(C)(C)CO)cc3N3CCC4(CC3)CC4)n2)CCO1` [Example 1-4, (R)-4-(N-(1-Hydroxy-2-methylpropan-2-yl)sulfamoyl)-N-(6-(2-methylmorpholino)pyridin-2-yl)-2-(6-azaspiro[2.5]octan-6-yl)benzamide], the IC50 stood at 46 nM.

As for `CC(CO)NS(=O)(=O)c1ccc(C(=O)Nc2cccc(N3CCO[C@H](C)C3)n2)c(N2CCC3(CC2)CC3)c1` (stereo partly drawn) [Example 1-5, 4-(N-(1-Hydroxypropan-2-yl)sulfamoyl)-N-(6-((R)-2-methylmorpholino)pyridin-2-yl)-2-(6-azaspiro[2.5]octan-6-yl)benzamide], the 50% inhibitory concentration (IC50) was determined as 47 nM.

`C[C@@H]1CN(c2cccc(NC(=O)c3ccc(S(=O)(=O)NC(C)(C)C)cc3N3CCC4(CC3)CC4)n2)CCO1` [Example 1-6, (R)-4-(N-(tert-Butyl)sulfamoyl)-N-(6-(2-methylmorpholino)pyridin-2-yl)-2-(6-azaspiro[2.5]octan-6-yl)benzamide]: the 50% inhibitory concentration (IC50) was determined as 51 nM.

With `C[C@@H]1CN(c2cccc(NC(=O)c3ccc(S(=O)(=O)N4CCC4)cc3N3CCC4(CC3)CC4)n2)CCO1` [Example 1-7, (R)-4-(Azetidin-1-ylsulfonyl)-N-(6-(2-methylmorpholino)pyridin-2-yl)-2-(6-azaspiro[2.5]octan-6-yl)benzamide], the IC50 was found to be 67 nM.

For the molecule `Cc1cc(NC(=O)c2ccc(S(=O)(=O)NC3(C)COC3)cc2N2CCC3(CC2)CC3)nc(N2CCO[C@H](C)C2)c1` [Example 1-8, (R)-N-(4-Methyl-6-(2-methylmorpholino)pyridin-2-yl)-4-(N-(3-methyloxetan-3-yl)sulfamoyl)-2-(6-azaspiro[2.5]octan-6-yl)benzamide], the half-maximal inhibitory concentration (IC50) is 119 nM.

As for `CCC(CO)NS(=O)(=O)c1ccc(C(=O)Nc2cccc(N3CCO[C@H](C)C3)n2)c(N2CCC3(CC2)CC3)c1` (stereo partly drawn) [Example 1-9, 4-(N-(1-Hydroxybutan-2-yl)sulfamoyl)-N-(6-((R)-2-methylmorpholino)pyridin-2-yl)-2-(6-azaspiro[2.5]octan-6-yl)benzamide], the IC50 came out at 120 nM.

With `Cc1cc(NC(=O)c2ccc(S(=O)(=O)NC(C)(C)C)cc2N2CCC3(CC2)CC3)nc(N2CCOCC2)c1` [Example 1-10, 4-(N-(tert-Butyl)sulfamoyl)-N-(4-methyl-6-morpholinopyridin-2-yl)-2-(6-azaspiro[2.5]octan-6-yl)benzamide], the IC50 came out at 222 nM.

Take `C[C@@H]1CN(c2cccc(NC(=O)c3ccc(S(=O)(=O)N4CC(C)(C)C4)cc3N3CCC4(CC3)CC4)n2)CCO1` [Example 1-11, (R)-4-((3,3-Dimethylazetidin-1-yl)sulfonyl)-N-(6-(2-methylmorpholino)pyridin-2-yl)-2-(6-azaspiro[2.5]octan-6-yl)benzamide]: the IC50 turned out to be 566 nM.

`C[C@@H]1CN(c2cccc(NC(=O)c3ccc(S(=O)(=O)N4CC(C)(C#N)C4)cc3N3CCC4(CC3)CC4)n2)CCO1` [Example 1-12, (R)-4-((3-Cyano-3-methylazetidin-1-yl)sulfonyl)-N-(6-(2-methylmorpholino)pyridin-2-yl)-2-(6-azaspiro[2.5]octan-6-yl)benzamide]: the IC50 was 458 nM.

Take `C[C@@H]1CN(c2cccc(NC(=O)c3ccc(S(=O)(=O)N4CC(C#N)C4)cc3N3CCC4(CC3)CC4)n2)CCO1` [Example 1-13, (R)-4-((3-Cyanoazetidin-1-yl)sulfonyl)-N-(6-(2-methylmorpholino)pyridin-2-yl)-2-(6-azaspiro[2.5]octan-6-yl)benzamide]: the IC50 was 209 nM.

For the molecule `CC(C)S(=O)(=O)c1ccc(C(=O)Nc2cccc(N3CCO[C@H](C)C3)n2)c(N2CCC3(CC2)CC3)c1` [Example 2, (R)-4-(Isopropylsulfonyl)-N-(6-(2-methylmorpholino)pyridin-2-yl)-2-(6-azaspiro[2.5]octan-6-yl)benzamide], the IC50 is 34 nM.

On to `C[C@@H]1CN(c2cccc(NC(=O)c3ccc(S(=O)(=O)CCO)cc3N3CCC4(CC3)CC4)n2)CCO1` [Example 2-1, (R)-4-((2-Hydroxyethyl)sulfonyl)-N-(6-(2-methylmorpholino)pyridin-2-yl)-2-(6-azaspiro[2.5]octan-6-yl)benzamide], for which the concentration for half-maximal inhibition (IC50) was determined as 32 nM.

On to `C[C@@H]1CN(c2cccc(NC(=O)c3ccc(S(=O)(=O)C(C)(C)C)cc3N3CCC4(CC3)CC4)n2)CCO1` [Example 2-2, (R)-4-(tert-Butylsulfonyl)-N-(6-(2-methylmorpholino)pyridin-2-yl)-2-(6-azaspiro[2.5]octan-6-yl)benzamide], for which the IC50 is 78 nM.

Regarding `C[C@@H]1CN(c2cccc(NC(=O)c3ccc(S(=O)(=O)C4(C)COC4)cc3N3CCC4(CC3)CC4)n2)CCO1` [Example 2-3, (R)-N-(6-(2-Methylmorpholino)pyridin-2-yl)-4-((3-methyloxetan-3-yl)sulfonyl)-2-(6-azaspiro[2.5]octan-6-yl)benzamide], the IC50 came out at 141 nM.

In the case of `C[C@@H]1CN(c2cccc(NC(=O)c3ccc(S(=O)(=O)C4COC4)cc3N3CCC4(CC3)CC4)n2)CCO1` [Example 2-4, (R)-N-(6-(2-Methylmorpholino)pyridin-2-yl)-4-(oxetan-3-ylsulfonyl)-2-(6-azaspiro[2.5]octan-6-yl)benzamide], the IC50 was found to be 38 nM.

As to `C[C@@H]1CN(c2cccc(NC(=O)c3ccc(S(=O)(=O)C(C)(C)CO)cc3N3CCC4(CC3)CC4)n2)CCO1` [Example 2-5, (R)-4-((1-Hydroxy-2-methylpropan-2-yl)sulfonyl)-N-(6-(2-methylmorpholino)pyridin-2-yl)-2-(6-azaspiro[2.5]octan-6-yl)benzamide], the 50% inhibitory concentration (IC50) was 51 nM.

As for `C[C@@H]1CN(c2cccc(NC(=O)c3ccc(S(=O)(=O)CC(C)(C)O)cc3N3CCC4(CC3)CC4)n2)CCO1` [Example 2-6, (R)-4-((2-Hydroxy-2-methylpropyl)sulfonyl)-N-(6-(2-methylmorpholino)pyridin-2-yl)-2-(6-azaspiro[2.5]octan-6-yl)benzamide], the IC50 came out at 110 nM.

`Cc1cc(NC(=O)c2ccc(S(=O)(=O)CCO)cc2N2CCC3(CC2)CC3)nc(N2CCO[C@H](C)C2)c1` [Example 2-7, (R)-4-((2-Hydroxyethyl)sulfonyl)-N-(4-methyl-6-(2-methylmorpholino)pyridin-2-yl)-2-(6-azaspiro[2.5]octan-6-yl)benzamide]: the IC50 was determined as 103 nM.

Take `CC1(S(=O)(=O)Nc2ccc(C(=O)Nc3cccc(N4CCC[C@@H](O)C4)n3)c(N3CCC4(CC3)CC4)c2)CC1` [Example 3, (R)-N-(6-(3-Hydroxypiperidin-1-yl)pyridin-2-yl)-4-((1-methylcyclopropane)-1-sulfonamido)-2-(6-azaspiro[2.5]octan-6-yl)benzamide]: the IC50 was determined as 46 nM.

Consider `CC1(S(=O)(=O)Nc2ccc(C(=O)Nc3cccc(N4CCC[C@H](O)C4)n3)c(N3CCC4(CC3)CC4)c2)CC1` [Example 3-1, (S)-N-(6-(3-Hydroxypiperidin-1-yl)pyridin-2-yl)-4-((1-methylcyclopropane)-1-sulfonamido)-2-(6-azaspiro[2.5]octan-6-yl)benzamide], for which the half-inhibitory concentration (IC50) was 56 nM.
